# Legend:
# ROCK2 = molecular target: T1, ROCK2 (Homo sapiens, UniProt O75116); experiment: ROCK2 inhibition assay (ADP-Glo kinase assay, called ROCK2 binding activity); format: biochemical; conditions: 20 μM ATP, 1 hour pre-incubation, read-out: ROCK 2 (IC50 category)
# T1 construct: N-terminal 6His-tagged ROCK2 catalytic domain 11-552; 6His (N); purchased Dundee University, UK; host or cells: baculovirus expression system
# Procedure: ROCK2 Binding Activity: Assay for ROCK2 inhibition was performed using the protein construct N-terminal 6His-tagged ROCK2 catalytic domain 11-552 (Dundee University, UK). Protein was purified from a baculovirus expression system. Long S6 peptide ([…]) was used as substrate. Kinase reactions were carried out in 15 μl volume in a 96-well plate (black, half area) using 1.25 nM constitutively active ROCK2 kinase, 100 μM long S6 peptide, 20 μM ATP and test compound in DMSO (or DMSO only for controls). The final concentration of DMSO was 1%. Assay buffer was 50 mM HEPES pH 7.5 supplemented with 0.2 mM EDTA, 10 mM magnesium acetate, 0.01% Tween-20, 1 mM DTT and 0.01% BSA. Test compounds were pre-incubated with ROCK2 kinase for 1 hour before addition of ATP and long S6 peptide. After incubation for a further 1 hour, the amount of ADP produced was measured using ADP-Glo Kinase Assay (Promega) as per manufacturer's instructions. The luminescence was measured on a PHERAstar FS (BMG Labtech). The concentration of test compound required to inhibit ADP production by 50% (the IC50) was calculated using a four-parameter logistic function with software by Dotmatics. […] The category “+” refers to compounds with a ROCK2 or ROCK1 IC50 value of >10 μM. The category “++” refers to compounds with a ROCK2 or ROCK1 IC50 value of 10 to 3 μM. The category “+++” refers to compounds with a ROCK1 or ROCK2 IC50 value of 3 to 0.3 μM. The category “++++” refers to compounds with a ROCK1 or ROCK2 IC50 value of <0.3 μM.
# ROCK1 = ROCK1 (Homo sapiens, UniProt Q13464); experiment: ROCK1 inhibition assay (ROCK1 binding activity, as determined by the assay described for ROCK2); format: biochemical; conditions: read-out: ROCK 1 (IC50 category)
# Sequence of ROCK1 (Q13464 whole entry, the tested form may be a part): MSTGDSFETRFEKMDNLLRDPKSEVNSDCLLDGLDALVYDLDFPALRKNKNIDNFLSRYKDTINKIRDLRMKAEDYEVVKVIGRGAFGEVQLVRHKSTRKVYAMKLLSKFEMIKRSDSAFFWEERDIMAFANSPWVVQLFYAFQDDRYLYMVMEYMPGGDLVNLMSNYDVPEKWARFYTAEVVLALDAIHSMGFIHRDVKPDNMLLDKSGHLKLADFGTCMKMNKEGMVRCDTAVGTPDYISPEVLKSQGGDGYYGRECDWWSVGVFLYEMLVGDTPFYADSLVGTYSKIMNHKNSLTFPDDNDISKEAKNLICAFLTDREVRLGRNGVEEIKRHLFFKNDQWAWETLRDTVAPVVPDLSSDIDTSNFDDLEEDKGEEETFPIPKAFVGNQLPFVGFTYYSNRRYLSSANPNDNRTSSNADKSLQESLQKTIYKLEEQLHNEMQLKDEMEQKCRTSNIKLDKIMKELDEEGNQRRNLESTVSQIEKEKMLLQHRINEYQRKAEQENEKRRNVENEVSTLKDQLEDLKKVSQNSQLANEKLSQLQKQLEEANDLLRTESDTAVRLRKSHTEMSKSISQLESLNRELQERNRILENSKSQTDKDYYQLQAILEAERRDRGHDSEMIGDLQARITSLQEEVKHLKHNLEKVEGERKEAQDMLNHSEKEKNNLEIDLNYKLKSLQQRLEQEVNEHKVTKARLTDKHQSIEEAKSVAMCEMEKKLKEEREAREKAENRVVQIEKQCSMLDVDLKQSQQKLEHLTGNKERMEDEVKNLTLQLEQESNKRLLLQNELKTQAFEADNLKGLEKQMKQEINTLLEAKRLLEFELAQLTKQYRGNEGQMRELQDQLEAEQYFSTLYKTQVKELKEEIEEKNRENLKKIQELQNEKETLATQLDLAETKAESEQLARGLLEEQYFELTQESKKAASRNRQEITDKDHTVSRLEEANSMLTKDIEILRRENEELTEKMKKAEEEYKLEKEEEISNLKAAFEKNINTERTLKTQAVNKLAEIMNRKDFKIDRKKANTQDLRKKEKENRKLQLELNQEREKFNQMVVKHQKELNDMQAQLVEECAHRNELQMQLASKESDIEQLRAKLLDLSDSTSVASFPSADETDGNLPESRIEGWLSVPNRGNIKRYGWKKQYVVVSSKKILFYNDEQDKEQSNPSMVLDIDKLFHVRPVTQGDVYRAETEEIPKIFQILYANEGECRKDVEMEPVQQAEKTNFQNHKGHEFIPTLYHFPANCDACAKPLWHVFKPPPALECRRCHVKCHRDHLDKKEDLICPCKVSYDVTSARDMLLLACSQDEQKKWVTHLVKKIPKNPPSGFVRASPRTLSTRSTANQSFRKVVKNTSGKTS
# Procedure: Assay for ROCK2 inhibition was performed using the protein construct N-terminal 6His-tagged ROCK2 catalytic domain 11-552 (Dundee University, UK). Protein was purified from a baculovirus expression system. Long S6 peptide ([…]) was used as substrate. Kinase reactions were carried out in 15 μl volume in a 96-well plate (black, half area) using 1.25 nM constitutively active ROCK2 kinase, 100 μM long S6 peptide, 20 μM ATP and test compound in DMSO (or DMSO only for controls). The final concentration of DMSO was 1%. Assay buffer was 50 mM HEPES pH 7.5 supplemented with 0.2 mM EDTA, 10 mM magnesium acetate, 0.01% Tween-20, 1 mM DTT and 0.01% BSA. Test compounds were pre-incubated with ROCK2 kinase for 1 hour before addition of ATP and long S6 peptide. After incubation for a further 1 hour, the amount of ADP produced was measured using ADP-Glo Kinase Assay (Promega) as per manufacturer's instructions. The luminescence was measured on a PHERAstar FS (BMG Labtech). The concentration of test compound required to inhibit ADP production by 50% (the IC50) was calculated using a four-parameter logistic function with software by Dotmatics. […] The category “+” refers to compounds with a ROCK2 or ROCK1 IC50 value of >10 μM. The category “++” refers to compounds with a ROCK2 or ROCK1 IC50 value of 10 to 3 μM. The category “+++” refers to compounds with a ROCK1 or ROCK2 IC50 value of 3 to 0.3 μM. The category “++++” refers to compounds with a ROCK1 or ROCK2 IC50 value of <0.3 μM.
# T1 sequence (O75116 11-552): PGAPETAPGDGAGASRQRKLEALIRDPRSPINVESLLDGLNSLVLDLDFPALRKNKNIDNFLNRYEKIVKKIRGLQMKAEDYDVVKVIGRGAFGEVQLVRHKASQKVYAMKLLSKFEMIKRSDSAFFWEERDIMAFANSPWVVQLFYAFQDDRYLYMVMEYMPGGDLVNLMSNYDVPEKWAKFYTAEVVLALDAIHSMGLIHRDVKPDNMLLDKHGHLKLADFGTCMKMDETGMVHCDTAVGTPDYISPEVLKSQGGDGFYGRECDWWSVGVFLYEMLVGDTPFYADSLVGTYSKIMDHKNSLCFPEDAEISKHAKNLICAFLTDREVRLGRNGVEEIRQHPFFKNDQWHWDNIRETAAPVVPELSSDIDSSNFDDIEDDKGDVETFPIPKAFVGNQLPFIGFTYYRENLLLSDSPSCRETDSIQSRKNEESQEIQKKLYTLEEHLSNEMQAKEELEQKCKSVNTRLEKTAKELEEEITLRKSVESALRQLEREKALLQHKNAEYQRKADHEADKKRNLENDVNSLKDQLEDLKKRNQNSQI
IC50 (ROCK2),IC50 (ROCK1),Structure (SMILES)
< 0.3 µM,3 to 10 µM,CCn1nc(-c2ccc(-c3ccc(C4CC4)nc3)c(C)c2)nc1Nc1cc2c(cc1C)C(=O)NC2C (stereo not drawn) [Example 48]
< 0.3 µM,> 10 µM,CCn1nc(-c2ccc(-c3ccc(C4CC4)nc3)c(C)c2)nc1Nc1ccc2c(c1)C1(CC1)NC2=O [Example 49]
< 0.3 µM,> 10 µM,CCn1nc(-c2ccc(-c3ccc(C4CC4)nc3)cc2C)nc1Nc1ccc2c(c1)C(C)NC2=O (stereo not drawn) [Example 50]
< 0.3 µM,> 10 µM,CCn1nc(-c2ccc(-c3ccc(C)nc3)c(C)c2)nc1Nc1ccc2c(c1)C1(CC1)NC2=O [Example 51]
< 0.3 µM,> 10 µM,CCn1nc(-c2ccc(-c3ccc(C4CC4)cn3)c(C)c2)nc1Nc1ccc2c(c1)CNC2=O [Example 52]
< 0.3 µM,> 10 µM,CCn1nc(-c2ccc(-c3ccc(C)cn3)c(C)c2)nc1Nc1ccc2c(c1)C(C)NC2=O (stereo not drawn) [Example 53]
3 to 10 µM,> 10 µM,CCn1nc(-c2ccc(C3CCNCC3)cc2)nc1Nc1ccc2c(c1)CNC2=O [Example 54]
< 0.3 µM,> 10 µM,CCn1nc(-c2ccc(-c3ccc(C4CC4)nc3)cc2)nc1Nc1ccc2c(c1)C1(CC1)NC2=O [Example 55]
< 0.3 µM,3 to 10 µM,CCn1nc(-c2ccc(-c3ccc(C4CC4)nc3)cc2C)nc1Nc1cc2c(cc1C)C(=O)NC2C (stereo not drawn) [Example 56]
< 0.3 µM,> 10 µM,CCn1nc(-c2ccc(-c3ccc(C)nc3)c(F)c2)nc1Nc1cc2c(cc1C)C(=O)NC2C (stereo not drawn) [Example 57]
< 0.3 µM,3 to 10 µM,CCn1nc(-c2ccc(-c3cnc(C4CC4)n3C)cc2)nc1Nc1cc2c(cc1C)C(=O)NC2C (stereo not drawn) [Example 58]
< 0.3 µM,3 to 10 µM,CCn1nc(-c2ccc(-n3cnc(C4CC4)c3)c(C)c2)nc1Nc1cc2c(cc1C)C(=O)NC2C (stereo not drawn) [Example 59]
< 0.3 µM,> 10 µM,CCn1nc(-c2ccc(-c3ccc(C4CC4)nc3)nc2)nc1Nc1ccc2c(c1)C(C)NC2=O (stereo not drawn) [Example 60]
< 0.3 µM,3 to 10 µM,CCn1nc(-c2ccc(-c3ccc(C)nc3)cc2)nc1Nc1ccc2c(c1)C(C)NC2=O (stereo not drawn) [Example 61]
< 0.3 µM,> 10 µM,CCn1nc(-c2ccc(-c3ccc(C4CC4)nc3)c(F)c2)nc1Nc1cc2c(cc1C)C(=O)NC2C (stereo not drawn) [Example 62]
< 0.3 µM,3 to 10 µM,CCn1nc(-c2ccc(-c3ccc(C)nc3)cc2C)nc1Nc1ccc2c(c1)C(C)NC2=O (stereo not drawn) [Example 63]
< 0.3 µM,3 to 10 µM,CCn1nc(-c2ccc(-c3cnc(C4CC4)n3C)cc2)nc1Nc1ccc2c(c1)C(C)NC2=O (stereo not drawn) [Example 64]
< 0.3 µM,3 to 10 µM,CCn1nc(-c2ccc(-c3cnc(C4CC4)n3C)c(C)c2)nc1Nc1ccc2c(c1)C(C)NC2=O (stereo not drawn) [Example 65]
< 0.3 µM,> 10 µM,CCn1nc(-c2ccc(-c3ccc(C4CC4)nc3)c(C)c2)nc1Nc1ccc2c(c1)C(C)NC2=O (stereo not drawn) [Example 66]
3 to 10 µM,> 10 µM,CCn1nc(-c2ccc(C3=CCNC3)cc2)nc1Nc1ccc2c(c1)CNC2=O [Example 68]
< 0.3 µM,> 10 µM,CCn1nc(-c2ccc(-c3ccc(C)nc3)cc2)nc1Nc1ccc2c(c1)C1(CC1)NC2=O [Example 69]
< 0.3 µM,3 to 10 µM,CCn1nc(-c2ccc(-c3ccc(C4CC4)nc3)cc2)nc1Nc1cc2c(cc1C)C(=O)NC2C (stereo not drawn) [Example 70]
< 0.3 µM,> 10 µM,CCn1nc(-c2ccc(-c3ccc(C)nc3)nc2)nc1Nc1cc2c(cc1C)C(=O)NC2C (stereo not drawn) [Example 71]
< 0.3 µM,> 10 µM,CCn1nc(-c2ccc(-c3ccc(C)nc3)c(C)c2)nc1Nc1ccc2c(c1)C(C)NC2=O (stereo not drawn) [Example 72]

IC50 (ROCK2),IC50 (ROCK1),Structure (SMILES)
< 0.3 µM,3 to 10 µM,CCn1nc(-c2ccc(-c3ccc(C4CC4)nc3)cc2F)nc1Nc1cc2c(cc1C)C(=O)NC2C (stereo not drawn) [Example 73]
< 0.3 µM,3 to 10 µM,CCn1nc(-c2ccc(-c3ccc(C4CC4)nc3)cc2F)nc1Nc1ccc2c(c1)C(C)NC2=O (stereo not drawn) [Example 74]
< 0.3 µM,3 to 10 µM,CCn1nc(-c2ccc(-c3ccc(C)nc3)c(C)c2)nc1Nc1cc2c(cc1C)C(=O)NC2C (stereo not drawn) [Example 75]
< 0.3 µM,3 to 10 µM,CCn1nc(-c2ccc(-n3cnc(C4CC4)c3)c(C)c2)nc1Nc1ccc2c(c1)C(C)NC2=O (stereo not drawn) [Example 76]
< 0.3 µM,3 to 10 µM,CCn1nc(-c2cc(C)c(-c3ccc(C)nc3)cc2C)nc1Nc1cc2c(cc1C)C(=O)NC2C (stereo not drawn) [Example 77]
< 0.3 µM,> 10 µM,CCn1nc(-c2ccc(-c3ccc(C)cn3)c(F)c2)nc1Nc1ccc2c(c1)CNC2=O [Example 79]
< 0.3 µM,> 10 µM,CCn1nc(-c2ccc(-c3ccc(C4CC4)nc3)c(C)c2)nc1Nc1cc2c(cc1F)C(=O)NC2C (stereo not drawn) [Example 80]
< 0.3 µM,> 10 µM,CCn1nc(-c2ccc(-c3ccc(C)nc3)cc2F)nc1Nc1ccc2c(c1)C(C)NC2=O (stereo not drawn) [Example 81]
< 0.3 µM,3 to 10 µM,CCn1nc(-c2ccc(-n3cnc(C4CC4)c3)c(F)c2)nc1Nc1cc2c(cc1C)C(=O)NC2C (stereo not drawn) [Example 82]
< 0.3 µM,3 to 10 µM,CCn1nc(-c2cc(C)c(-c3ccc(C)nc3)cc2F)nc1Nc1cc2c(cc1C)C(=O)NC2C (stereo not drawn) [Example 83]
< 0.3 µM,> 10 µM,CCn1nc(-c2ccc(-c3ccc(C4CC4)nc3)c(F)c2)nc1Nc1cc2c(cc1F)C(=O)NC2C (stereo not drawn) [Example 85]
< 0.3 µM,3 to 10 µM,CCn1nc(-c2ccc(-n3cnc(C4CC4)c3)c(F)c2)nc1Nc1ccc2c(c1)C(C)NC2=O (stereo not drawn) [Example 86]
3 to 10 µM,> 10 µM,CCn1nc(-c2ccc(-c3cc(C)cnc3C)c(C)c2)nc1Nc1cc2c(cc1C)C(=O)NC2C (stereo not drawn) [Example 87]
< 0.3 µM,> 10 µM,CCn1nc(-c2cc(C)c(-c3ccc(C4CC4)nc3)cc2C)nc1Nc1cc2c(cc1C)C(=O)NC2C (stereo not drawn) [Example 88]
< 0.3 µM,> 10 µM,CCn1nc(-c2ccc(-c3ccc(C)cn3)c(C)c2)nc1Nc1cc2c(cc1C)C(=O)NC2C (stereo not drawn) [Example 89]
3 to 10 µM,> 10 µM,CCn1nc(-c2ccc(-c3ncc(C)cc3C)c(C)c2)nc1Nc1cc2c(cc1C)C(=O)NC2C (stereo not drawn) [Example 90]
< 0.3 µM,3 to 10 µM,CCn1nc(-c2ccc(-c3cc(C)c(C)cn3)c(C)c2)nc1Nc1cc2c(cc1C)C(=O)NC2C (stereo not drawn) [Example 91]
< 0.3 µM,> 10 µM,CCn1nc(-c2ccc(-c3ccc(C)nc3C)c(C)c2)nc1Nc1cc2c(cc1C)C(=O)NC2C (stereo not drawn) [Example 92]
< 0.3 µM,3 to 10 µM,CCn1nc(-c2ccc(-c3ccc(C)nc3)cc2)nc1Nc1ccc2c(c1)C(F)NC2=O (stereo not drawn) [Example 93]
< 0.3 µM,3 to 10 µM,CCn1nc(-c2cc(C)c(-c3ccc(C4CC4)nc3)cc2F)nc1Nc1cc2c(cc1C)C(=O)NC2C (stereo not drawn) [Example 94]
< 0.3 µM,> 10 µM,CCn1nc(-c2cc(C)c(-c3ccc(C)cn3)cc2C)nc1Nc1cc2c(cc1C)C(=O)NC2C (stereo not drawn) [Example 95]
< 0.3 µM,3 to 10 µM,CCn1nc(-c2ccc(-c3ccc(C4CC4)nc3)nc2)nc1Nc1cc2c(cc1C)C(=O)NC2C (stereo not drawn) [Example 97]
< 0.3 µM,3 to 10 µM,CCn1nc(-c2cc(C)c(-c3ccc(C)nc3)cc2F)nc1Nc1ccc2c(c1)C(C)NC2=O (stereo not drawn) [Example 98]

Structure (SMILES),IC50 (ROCK2),IC50 (ROCK1)
CCn1nc(-c2ccc(C3=CCNCC3)cc2)nc1Nc1ccc2c(c1)CNC2=O [Example 67],3 to 10 µM,3 to 10 µM

# — patent publication US20250122173A1, “MODULATORS OF RHO-ASSOCIATED PROTEIN KINASE” (Redx Pharma Limited, priority 2022, published 2025)
